The source of these data is patent publication US4521419A, “Condensed cycloaliphatic derivatives of substituted pyrido[1,2-a]pyrimidines and methods of treating allergic conditions, peptic ulcers and inhibiting gastric acid secretion with them” (Farmitalia Carlo Erba S.p.A., priority 1982, dated 1985).

For series [1], the system named is gastric secretion in rats. Description: inhibition of gastric secretion in rats (H. Shay et al.). The class given is in vivo. The conditions noted are these: rat, intraduodenal administration; read-out: antisecretory activity, approximate ED25. As to the method:
(§1) One of the preferred compounds of the invention having antisecretory activity is, for example, the compound 3-(2-methyl-benzylidene)-1,2,3,10-tetrahydro-10-oxo-10H-cyclopenta[d]pyrido[1,2-a]pyrimidine-7-carboxylic acid, which has an approximate ED25 value of 10 mg/kg in the above test in the rat, after intraduodenal administration. In view of their high therapeutic index the compounds of the invention can be safely used in medicine. For example, the approximate acute toxicity (LD50) of the compounds 3-benzylidene-1,2,3,10-tetrahydro-10-oxo-cyclopenta[d]pyrido[1,2-a]pyrimidine-7-carboxylic acid, 3-(2-methyl-benzylidene)-1,2,3,10-tetrahydro-10-oxo-10H-cyclopenta[d]pyrido[1,2-a]pyrimidine-7-carboxylic acid and 4-benzylidene-1,2,3,4-tetrahydro-11-oxo-11H-pyrido[2,1-b]quinazoline-8-carboxylic acid, in the mouse, determined with single administration of increasing doses and measured on the seventh day after the day of treatment, is per os higher than 800 mg/kg. Analogous toxicity data have been found for the other compounds of the invention.

Series [2] can be described thus: acute toxicity (LD50) in the mouse. The settings on record: in vivo, po, per os, single administration of increasing doses, measured on the seventh day after treatment, read-out: approximate acute toxicity (LD50). Here is the method:
as §1

In series [3] the test system is restraint ulcers in rats. Description: inhibition of restraint ulcers in rats (Bonfils et al.). The format is in vivo. The conditions noted are these: po, 1 h; rat, per os one hour before immobilization; approximate value; read-out: Anti-ulcerogenic activity ED50. As to the method: (§2) For example, in the above test in the rat the compound FCE 21273 gives about a 30% inhibition of RPAR reaction when administered orally at a dosage of 100 mg/kg. The compounds of the present invention, furthermore, are active on the gastroenterical system, in particular they are endowed with anti-ulcerogenic and anti-secretory activity and are therefore useful in therapy, for example, in the prevention and treatment of peptic, e.g., duodenal, gastric and esophageal, ulcers and to inhibit gastric acid secretion. The anti-ulcerogenic activity of the compounds of the invention is shown, e.g., by the fact that they are active in the test of inhibition of restraint ulcers in rats, according to the method of Bonfils et al. (Therapie, 1960, 15, 1096; Jap. J.Pharmac. 1968, 18, 9).
The tested compound was administered per os (p.o.) one hour before the immobilization.
Six Sprague-Dawley male rats (100-120 g) fasted 24 hours were used for the experiment: a square flexible small-mesh wire netting was used for the immobilization and 4 hours after the immobilization the rats were sacrificed, their stomachs were removed and the lesions counted under a dissecting microscope.

Series [4] concerns rat peritoneal cells. Nature of the series: A 23187 induced SRS production from rat peritoneal cells. The class given is cell-based. The conditions noted are these: in vitro, FCE 21273 at 1 mcg/ml. An excerpt: (1) test of A 23187 induced SRS production from rat peritoneal cells, according to M. K. Bach and J. R. Brashler (J. Immunol., 113, 2040, 1974);
The subject of series [5] is chopped guinea-pig lung. Description: antigen induced SRS production from chopped guinea-pig lung. The class given is cell-based. The settings on record: Cavia porcellus, in vitro, FCE 21273 at 10 mcg/ml. From the text:
(2) test of antigen induced SRS production from chopped guinea-pig lung, according to W. E. Brocklehurst (J. Physiol., 151, 416, 1960); and in vivo

For series [6], the system named is Reversed Passive Arthus Reaction (RPAR). Nature of the series: Reversed Passive Arthus Reaction (RPAR) in the rat. The class given is in vivo. The settings on record: administered orally at 100 mg/kg.
Text: Furthermore the compounds of this invention are effective in vivo, for example, in inhibiting the Reversed Passive Arthus Reaction (RPAR) which is a model of immune-complex induced inflammatory reaction initiated by the interaction of antigen and antibody resulting in the formation of precipitating immune-complex, followed by complement fixation and accumulation of PMN in the focal site (D. K. Gemmell, J. Cottney and A. J. Lewis, Agents and Actions 9/1 page 107, 1979).
as §2

On to `Cc1ccccc1C=C1CCc2c1nc1ccc(C(=O)O)cn1c2=O` [3-(2-methyl-benzylidene)-1,2,3,10-tetrahydro-10-oxo-cyclopenta[d]pyrido[1,2-a]pyrimidine-7-carboxylic acid], for which the ED25 in series [1] is around 10 mg/kg. In series [2], the LD50 at 168 h was above 800 mg/kg.
On to `O=C(O)c1ccc2nc3c(c(=O)n2c1)CCC3=Cc1ccccc1` [3-benzylidene-1,2,3,10-tetrahydro-10-oxo-cyclopenta[d]pyrido[1,2-a]pyrimidine-7-carboxylic acid], for which the ED50 in series [3] is 12 mg/kg. For the same molecule, the LD50 at 168 h in series [2] was above 800 mg/kg.
Molecule `O=C(O)c1ccc2nc3c(c(=O)n2c1)CCCC3=Cc1ccccc1` [FCE 21273, 4-benzylidene-1,2,3,4-tetrahydro-11-oxo-11H-pyrido[2,1-b]quinazoline-8-carboxylic acid] had an inhibition at 1 µg/mL in series [4] of 50%. Moreover, in series [5], the inhibition at 10 µg/mL was 47%. Moreover, in series [6], the “inhibition of RPAR reaction” value is around 30%. The LD50 at 168 h in series [2] is above 800 mg/kg.

The term LD50 denotes the dose expected to kill half of the subjects tested. A word on the ED50: it is the dose that gives a 50% effect, or the effect in half of the subjects. A word on the inhibition: it is the change of the read-out against control, counted positive when it falls. A low value points to a response near the control.
